From patent US20130023532A1, “INDAZOLYL-PYRIMIDINES AS KINASE INHIBITORS” (priority 2010, published 2013)
Where a name gives a salt, the structure may show the parent alone.

Molecular target: T1, RIPK2 (Homo sapiens, UniProt O43353)
T1 construct: Full length FLAG His tagged RIPK2 was purified from a Baculovirus expression system; FLAG (N); 6His (N); made in house; host or cells: Spodoptera frugiperda (Sf9) insect cells, baculovirus
Test: Fluorescent polarization based binding assay at the ATP binding pocket of RIPK2
Details: FP competition with fluorescently labeled ATP competitive ligand (5 nM); full length FLAG His tagged RIPK2; mean of a minimum of 2 experiments; read-out: mean pIC50 (converted)
Source text: A fluorescent polarization based binding assay was developed to quantitate interaction of novel test compounds at the ATP binding pocket of RIPK2, by competition with a fluorescently labeled ATP competitive ligand. Full length FLAG His tagged RIPK2 was purified from a Baculovirus expression system and was used at a final assay concentration of twice the KDapparent. A fluorescent labeled ligand (5-({[2-({[3-({4-[(5-hydroxy-2-methylphenyl)amino]-2-pyrimidinyl}amino)phenyl]carbonyl}amino)ethyl]amino}carbonyl)-2-(6-hydroxy-3-oxo-3H-xanthen-9-yl)benzoic acid, prepared as described below) was used at a final assay concentration of 5 nM. Both the enzyme and ligand were prepared in solutions in 50 mM HEPES pH7.5, 150 mM NaCl, 10 mM MgCl2, 1 mM DTT, and 1 mM CHAPS. Test compounds were prepared in 100% DMSO and 100 nL was dispensed to individual wells of a multiwell plate. Next, 5 ul RIPK2 was added to the test compounds at twice the final assay concentration, and incubated at room temperature for 10 minutes. […] Finally, samples were read on an instrument capable of measuring fluorescent polarization. Test compound inhibition was expressed as percent (%) inhibition of internal assay controls.
For concentration response experiments, normalized data were fit and pIC50 s determined using conventional techniques. […]

T1 sequence (O43353 whole entry): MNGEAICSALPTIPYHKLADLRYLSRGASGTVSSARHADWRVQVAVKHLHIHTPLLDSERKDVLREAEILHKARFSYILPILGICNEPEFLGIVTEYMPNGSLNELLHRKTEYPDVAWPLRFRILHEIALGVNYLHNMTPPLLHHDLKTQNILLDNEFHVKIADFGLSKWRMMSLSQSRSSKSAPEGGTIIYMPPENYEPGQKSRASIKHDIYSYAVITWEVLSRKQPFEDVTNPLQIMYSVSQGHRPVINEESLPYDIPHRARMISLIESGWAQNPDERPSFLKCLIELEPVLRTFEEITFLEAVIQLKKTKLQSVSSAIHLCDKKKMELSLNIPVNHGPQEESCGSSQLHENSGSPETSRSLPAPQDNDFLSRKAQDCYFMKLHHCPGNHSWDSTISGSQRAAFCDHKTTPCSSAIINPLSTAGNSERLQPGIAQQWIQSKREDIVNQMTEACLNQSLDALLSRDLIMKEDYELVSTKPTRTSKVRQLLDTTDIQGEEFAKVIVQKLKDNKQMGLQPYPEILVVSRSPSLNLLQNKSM

COc1ccc2[nH]nc(Nc3ccnc(Nc4cc(OC)c(OC)c(OC)c4)n3)c2c1 [Example 12, N^4-[5-(methyloxy)-1H-indazol-3-yl]-N^2-[3,4,5-tris(methyloxy)phenyl]-2,4-pyrimidinediamine]
IC50: 7.94 nM

COc1ccc2[nH]nc(Nc3ccnc(Nc4ccc(F)c(S(C)(=O)=O)c4)n3)c2c1 [Example 27, N^2-[4-fluoro-3-(methylsulfonyl)phenyl]-N^4-[5-(methyloxy)-1H-indazol-3-yl]-2,4-pyrimidinediamine trifluoroacetate]
IC50: 50.1 nM
